US20220096650A1 (Glaxosmithkline Intellectual Property Development Limited, priority 2019, published 2022)

T1: cynomolgus PD-1 (cynomolgus)
T1 chain: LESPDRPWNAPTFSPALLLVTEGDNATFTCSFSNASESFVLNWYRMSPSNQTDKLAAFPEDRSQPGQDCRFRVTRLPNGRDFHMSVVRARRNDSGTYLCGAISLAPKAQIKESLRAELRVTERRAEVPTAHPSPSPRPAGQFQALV

B1: Pembrolizumab (antibody, human IgG4 S228P, kappa, V domains shown)
VH: QVQLVQSGVEVKKPGASVKVSCKASGYTFTNYYMYWVRQAPGQGLEWMGGINPSNGGTNFNEKFKNRVTLTTDSSTTTAYMELKSLQFDDTAVYYCARRDYRFDMGFDYWGQGTTVTVSS
VL: EIVLTQSPATLSLSPGERATLSCRASKGVSTSGYSYLHWYQQKPGQAPRLLIYLASYLESGVPARFSGSGSGTDFTLTISSLEPEDFAVYYCQHSRDLPLTFGGGTKVEIKR
notes: also called MK3475

Tests used:
[1] = test system: cells expressing human or cynomolgus PD-1; conditions: human versus cynomolgus PD-1; cited from earlier work
[2] = biological target: T1, cynomolgus PD-1; experiment: kinetic analysis (bio-light interferometry)

Molecule | blocking of binding of human PD-1 ligands to cells expressing human or cynomolgus PD-1 [1] | Kd [2] [nM]
pembrolizumab: monoclonal IgG4 kappa antibody that binds the PD-1 receptor and blocks its interaction with PD-L1 and PD-L2 | comparable potency | –
B1 | – | 0.118
